Test results: patent publication US8877748B2, “Heterocyclic fused anthraquinone derivatives, manufacturing method and pharmaceutical composition using thereof” (National Defense Medical Center, priority 2012, dated 2014)

Tests used:
[1] = system: NCI-H226; experiment: NCI one-dose screening, non-small cell lung cancer NCI-H226; format: cell-based, human; conditions: 10 μM
[2] = system: MALME-3M; experiment: NCI one-dose screening, melanoma MALME-3M; format: cell-based, human; conditions: 10 μM
[3] = system: NCI-H23; experiment: NCI one-dose screening, non-small cell lung cancer NCI-H23; format: cell-based, human; conditions: 10 μM
[4] = system: MDA-MB-231/ATCC; experiment: NCI one-dose screening, breast cancer MDA-MB-231/ATCC; format: cell-based, human; conditions: 10 μM
[5] = system: SNB-75; experiment: NCI one-dose screening, CNS cancer SNB-75; format: cell-based, human; conditions: 10 μM
[6] = system: OVCAR-5; experiment: NCI one-dose screening, ovarian cancer OVCAR-5; format: cell-based, human; conditions: 10 μM
[7] = system: EKVX; experiment: NCI one-dose screening, non-small cell lung cancer EKVX; format: cell-based, human; conditions: 10 μM
[8] = system: HCT-116; experiment: NCI one-dose screening, colon cancer HCT-116; format: cell-based, human; conditions: 10 μM
[9] = system: BT-549; experiment: NCI one-dose screening, breast cancer BT-549; format: cell-based, human; conditions: 10 μM
[10] = system: UACC-257; experiment: NCI one-dose screening, melanoma UACC-257; format: cell-based, human; conditions: 10 μM
[11] = system: SK-MEL-2; experiment: NCI one-dose screening, melanoma SK-MEL-2; format: cell-based, human; conditions: 10 μM
[12] = system: KM12; experiment: NCI one-dose screening, colon cancer KM12; format: cell-based, human; conditions: 10 μM
[13] = system: ACHN; experiment: NCI one-dose screening, renal cancer ACHN; format: cell-based, human; conditions: 10 μM
[14] = system: DU145; experiment: NCI one-dose screening, prostate cancer DU145; format: cell-based, human; conditions: 10 μM
[15] = system: PRMI-8226 cell line; experiment: NCI one-dose screening, leukemia PRMI-8226; format: cell-based, human; conditions: 10 μM
[16] = system: T-47D; experiment: NCI one-dose screening, breast cancer T-47D; format: cell-based, human; conditions: 10 μM
[17] = system: IGROV1; experiment: NCI one-dose screening, ovarian cancer IGROV1; format: cell-based, human; conditions: 10 μM
[18] = system: HCC-2998; experiment: NCI one-dose screening, colon cancer HCC-2998; format: cell-based, human; conditions: 10 μM
[19] = system: NCI-H460; experiment: NCI one-dose screening, non-small cell lung cancer NCI-H460; format: cell-based, human; conditions: 10 μM
[20] = system: SK-MEL-5; experiment: NCI one-dose screening, melanoma SK-MEL-5; format: cell-based, human; conditions: 10 μM
[21] = system: NCI-H522; experiment: NCI one-dose screening, non-small cell lung cancer NCI-H522; format: cell-based, human; conditions: 10 μM
[22] = system: MDA-MB-468; experiment: NCI one-dose screening, breast cancer MDA-MB-468; format: cell-based, human; conditions: 10 μM
[23] = system: UO-31; experiment: NCI one-dose screening, renal cancer UO-31; format: cell-based, human; conditions: 10 μM
[24] = system: K562cell line; experiment: NCI one-dose screening, leukemia K562; format: cell-based, human; conditions: 10 μM
[25] = system: PC-3; experiment: NCI one-dose screening, prostate cancer PC-3; format: cell-based, human; conditions: 10 μM
[26] = system: MDA, -MB-435; experiment: NCI one-dose screening, breast cancer MDA, -MB-435; format: cell-based, human; conditions: 10 μM; listed under Melanoma
[27] = system: OVCAR-8; experiment: NCI one-dose screening, ovarian cancer OVCAR-8; format: cell-based, human; conditions: 10 μM
[28] = system: HL-60, TB; experiment: NCI one-dose screening, leukemia HL-60, TB; format: cell-based, human; conditions: 10 μM
[29] = system: human tumor cell lines; experiment: NCI one-dose screening, Mean / Delta / Range of growth percent over all tested cell lines; format: cell-based; conditions: 10 μM
[30] = system: M14; experiment: NCI one-dose screening, melanoma M14; format: cell-based, human; conditions: 10 μM
[31] = system: COLO 205; experiment: NCI one-dose screening, colon cancer COLO 205; format: cell-based, human; conditions: 10 μM
[32] = system: UACC-62; experiment: NCI one-dose screening, melanoma UACC-62; format: cell-based, human; conditions: 10 μM
[33] = system: HOP-92; experiment: NCI one-dose screening, non-small cell lung cancer HOP-92; format: cell-based, human; conditions: 10 μM
[34] = system: SF-539; experiment: NCI one-dose screening, CNS cancer SF-539; format: cell-based, human; conditions: 10 μM
[35] = system: A549/ATCC; experiment: NCI one-dose screening, non-small cell lung cancer A549/ATCC; format: cell-based, human; conditions: 10 μM
[36] = system: MOLT-4; experiment: NCI one-dose screening, leukemia MOLT-4; format: cell-based, human; conditions: 10 μM
[37] = system: HT29; experiment: NCI one-dose screening, colon cancer HT29; format: cell-based, human; conditions: 10 μM
[38] = system: SK-OV-3; experiment: NCI one-dose screening, ovarian cancer SK-OV-3; format: cell-based, human; conditions: 10 μM
[39] = system: MCF7; experiment: NCI one-dose screening, breast cancer MCF7; format: cell-based, human; conditions: 10 μM
[40] = system: LOX IMVI; experiment: NCI one-dose screening, melanoma LOX IMVI; format: cell-based, human; conditions: 10 μM
[41] = system: HCT-15; experiment: NCI one-dose screening, colon cancer HCT-15; format: cell-based, human; conditions: 10 μM
[42] = system: 786-O; experiment: NCI one-dose screening, renal cancer 786-O; format: cell-based, human; conditions: 10 μM
[43] = system: RXF, 393; experiment: NCI one-dose screening, renal cancer RXF, 393; format: cell-based, human; conditions: 10 μM
[44] = system: SK-MEL-28; experiment: NCI one-dose screening, melanoma SK-MEL-28; format: cell-based, human; conditions: 10 μM
[45] = system: TK-10; experiment: NCI one-dose screening, renal cancer TK-10; format: cell-based, human; conditions: 10 μM
[46] = system: SNB-19; experiment: NCI one-dose screening, CNS cancer SNB-19; format: cell-based, human; conditions: 10 μM
[47] = system: SN12C; experiment: NCI one-dose screening, renal cancer SN12C; format: cell-based, human; conditions: 10 μM
[48] = system: HS 578-T; experiment: NCI one-dose screening, breast cancer HS 578-T; format: cell-based, human; conditions: 10 μM; Breast cancer
[49] = system: PC-3 prostate cancer cell line; experiment: SRB assay cell viability, PC-3 prostate cancer cell line; format: cell-based, human; conditions: Homo sapiens, PC-3 prostate cancer cell line, Table II prints no unit, μM printed, read-out: SRB assay: 50% inhibition of cancer cell proliferation of sample concentration (IC50) of PC-3 prostate cancer cell line
[50] = system: NCl/ADR-RES; experiment: NCI one-dose screening, breast cancer NCl/ADR-RES; format: cell-based, human; conditions: 10 μM; listed under Ovarian cancer
[51] = system: HOP-62; experiment: NCI one-dose screening, non-small cell lung cancer HOP-62; format: cell-based, human; conditions: 10 μM
[52] = system: OVCAR-3; experiment: NCI one-dose screening, ovarian cancer OVCAR-3; format: cell-based, human; conditions: 10 μM
[53] = system: U251; experiment: NCI one-dose screening, CNS cancer U251; format: cell-based, human; conditions: 10 μM
[54] = NCI one-dose screening, renal cancer A489; format: cell-based, human; conditions: 10 μM
[55] = system: SF-268; experiment: NCI one-dose screening, CNS cancer SF-268; format: cell-based, human; conditions: 10 μM
[56] = system: SR; experiment: NCI one-dose screening, leukemia SR; format: cell-based, human; conditions: 10 μM

COc1cccc(Sc2cc3c(c4nsnc24)C(=O)c2ccccc2C3=O)c1 [C46, 4-(3-methoxy-phenyl-thio)anthra[2,1-c] [1,2,5]thiadiazol-6,11-dione]
Growth Percent NCI-H226 [1]: 95.26%
Growth Percent MALME-3M [2]: 113.06%
Growth Percent NCI-H23 [3]: 76.42%
Growth Percent MDA-MB-231/ATCC [4]: 87.08%
Growth Percent SNB-75 [5]: 81.80%
Growth Percent OVCAR-5 [6]: 122.58%
Growth Percent EKVX [7]: 104.94%
Growth Percent HCT-116 [8]: 85.66%
Growth Percent BT-549 [9]: 94.91%
Growth Percent UACC-257 [10]: 104/27
Growth Percent SK-MEL-2 [11]: 82.62%
Growth Percent KM12 [12]: 97.06%
Growth Percent ACHN [13]: 98.70%
Growth Percent DU145 [14]: 98.87%
Growth Percent RPMI-8226 [15]: 52.03%
Growth Percent T-47D [16]: 69.09%
Growth Percent IGROV1 [17]: 99.91%
Growth Percent HCC-2998 [18]: 104.94%
Growth Percent NCI-H460 [19]: 100.27%
Growth Percent SK-MEL-5 [20]: 100.11%
Growth Percent NCI-H522 [21]: 82.41%
Growth Percent MDA-MB-468 [22]: 93.53%
Growth Percent UO-31 [23]: 75.49%
Growth Percent K562 [24]: 38.52%
Growth Percent PC-3 [25]: 75.99%
Growth Percent MDA-MB-435 [26]: 72.50%
Growth Percent OVCAR-8 [27]: 97.32%
Growth Percent HL-60(TB) [28]: 84.53%
Growth Percent Delta ([29]; delta over all cell lines): 55.47%
Growth Percent Mean ([29]; mean over all cell lines): 91.30%
Growth Percent Range ([29]; range over all cell lines): 94.97%
Growth Percent M14 [30]: 94.23%
Growth Percent COLO 205 [31]: 109.57%
Growth Percent UACC-62 [32]: 87.72%
Growth Percent HOP-92 [33]: 100.52%
Growth Percent SF-539 [34]: 107.05%
Growth Percent A549/ATCC [35]: 109.52%
Growth Percent MOLT-4 [36]: 35.83%
Growth Percent HT29 [37]: 105.25%
Growth Percent SK-OV-3 [38]: 110.30%
Growth Percent MCF7 [39]: 72.77%
Growth Percent LOX IMVI [40]: 70.96%
Growth Percent HCT-15 [41]: 71.89%
Growth Percent 786-0 [42]: 102.97%
Growth Percent RXF 393 [43]: 124.15%
Growth Percent SK-MEL-28 [44]: 101.77%
Growth Percent TK-10 [45]: 130.80%
Growth Percent SNB-19 [46]: 105.92%
Growth Percent SN12C [47]: 95.93%
Growth Percent HS 578T [48]: 93.84%
IC50 [49]: > 15 µM
Growth Percent NCI/ADR-RES [50]: 92.67%
Growth Percent HOP-62 [51]: 61.81%
Growth Percent OVCAR-3 [52]: 85.83%
Growth Percent U251 [53]: 100.67%
Growth Percent A498 [54]: 83.74%
Growth Percent SF-268 [55]: 89.75%
Growth Percent SR [56]: 36.14%
